Data taken from patent US20190092769A1, “[…] AND T[…] ACTING UPON THE […] AND CENTRAL NERVOUS SYSTEMS” (CENTRO DE INVESTIGACION Y […] LOS MEDICAMENTOS (CIDEM), priority 2009, published 2019).

Tests used:
[1] = test system: cerebellar granules damaged with glutamate; assay: Cytoprotective effect in cerebellar granules exposed to glutamate; type: cell-based
Description: For neuro-protective in vitro evaluation, we used PC12 cell cultures exposed to damage from glutamate and hydrogen peroxide, as well as cerebellar granules damaged with glutamate.
Diazepam (DZP), derivative of commercial 1,4-benzodiazepine.

[2] = test system: mitochondrial permeability transition (MPT); assay: Mitochondrial permeability transition in isolated mitochondria (absorbance decrease at 540 nm); type: biochemical; details: inducers Ca2+ 50 μM and phosphate (Pi)
Description: Mitochondrial permeability transition can be estimated by absorbance decrease of a mitochondrial suspension at 540 nm.

[3] = molecular target: T1, mitochondrial uniporter calcium excipient (Homo sapiens, UniProt Q8NE86); assay: Mitochondrial calcium capture in isolated mitochondria (Calcium Green 5N); type: biochemical
T1 construct: This experiment is also carried out with isolated mitochondria (0.5 mg/ml); from tissue
T1 sequence (Q8NE86 51-351): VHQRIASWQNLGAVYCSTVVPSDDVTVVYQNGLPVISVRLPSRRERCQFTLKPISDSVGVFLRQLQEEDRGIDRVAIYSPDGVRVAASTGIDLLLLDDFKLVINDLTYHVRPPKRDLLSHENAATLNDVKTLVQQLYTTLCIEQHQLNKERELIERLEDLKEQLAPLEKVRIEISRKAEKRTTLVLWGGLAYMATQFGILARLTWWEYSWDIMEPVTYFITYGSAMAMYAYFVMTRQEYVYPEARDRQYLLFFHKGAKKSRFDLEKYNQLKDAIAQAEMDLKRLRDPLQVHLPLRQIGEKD
T1 sequence (Q9H4I9 48-107 partner limits assumed): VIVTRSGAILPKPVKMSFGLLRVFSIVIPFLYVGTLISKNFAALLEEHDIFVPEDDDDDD
Description: This experiment is also carried out with isolated mitochondria (0.5 mg/ml) energized with succinate 5 mM+rotenone 2.5 μM and the presence of Calcium Green 5N fluorescent marker which increases fluorescence in the presence of calcium. […] The excitation/emission wave lengths used for Calcium Green 5N are 506/531 nm, respectively.

[4] = molecular target: T2, mitochondrial FOF1 ATPase (complex V) (Rattus norvegicus, UniProt P10719+P15999); assay: ATP hydrolysis by FOF1 ATPase in submitochondrial particles; type: biochemical, Wistar rats
T2 construct: These particles are obtained from isolated mitochondria from Wistar rats' liver; from tissue; host or cells: submitochondrial particles from Wistar rat liver mitochondria (sonicated)
Description: These particles are obtained from isolated mitochondria from Wistar rats' liver, submitted to an ultrasound process to break their membranes. Thus, so-called mitoplasts or submitchondrial particles are formed with inverted portions of the inner membrane that preserve the ATP hydrolytic activity of the FOF1 ATPase in the presence of external ATP.

[5] = test system: mitochondrial membrane potential; assay: Dissipation of mitochondrial membrane potential (safranine O fluorescence); type: biochemical; details: Ca2+ 50 μM and phosphate (Pi) 2 mM
Description: This membrane potential can be fluorimetrically estimated by using safranine O. This marker is captured in the suspension by energized mitochondria (in the presence of substrates of the electronic transportation chain, such as succinate) provoking a fluorescence decrease. When the MPT process takes place, safranine is again released to the environment, thus increasing, fluorescence. […] In a dosage dependent manner, JM-20 inhibits potential loss, being the maximum inhibitory level at 15 μM (orange line).
Safranine (10 μM) is captured by energized mitochondria (succinate 5 mM rotenone 2.5 μM). In the presence of MPT inducers such as Ca^2+ and Pi, an immediate loss of mitochondrial membrane potential takes place (black line) that is prevented by the classic MPT inhibitor, CsA (red line) and by JM-20 (green, blue and orange lines) in a dosage dependent manner. The excitation/emission wave length used for safranine are 495/586 nm, respectively. A mitoprotective behavior similar to the one reported in the previous Table was found in the other molecules evaluated.

4-(2′-Nitrophenyl)-3-Carbonylalcohoxi-2-Methyl-1, 4-Dihydropyrido (2,3-b-5,6-e)-1,4-Benzodiazepine [JM-20]
cytoprotective effect at concentrations lower than that of Nifedipine and Diazepam independently [1]: 100 times
MIC: concentration at which total inhibition of mitochondrial permeability transition took place [2]: 15 µM
inhibition of calcium mitochondrial uptake ([3]; 10 μM, isolated mitochondria 0.5 mg/ml, 20 μM Ca2+): significantly inhibits
inhibition of the mitochondrial calcium transmitter compared with Nifedipine ([3]; FIG. 25): more powerful in inhibiting the transmitter than other dihydropyridines (Nif)
IC50 ([4]; submitochondrial particles from Wistar rats' liver mitochondria, read-out: mean inhibitory concentration (IC50) of ATP hydrolysis): 10.2 µM
maximum inhibitory level for loss of mitochondrial membrane potential [5]: 15 µM

CN1C(=O)CN=C(c2ccccc2)c2cc(Cl)ccc21 [Diazepam, reference compound]
inhibition of calcium captation by the organelle ([3]; 20 μM, isolated mitochondria 0.5 mg/ml, 20 μM Ca2+): neither nifedipine (Nif 20 μM_light blue line) nor diazepam (DZP 20 μM), or the combination of both (Nif+DZP 1.0 μM—pink line) succeeded in inhibiting
inhibition of the hydrolytic activity of the mitochondrial enzyme (in words) [4]: Neither Nifedipine: nor Diazepam inhibited

N.N.N.N.N.N.N.N.N.N.N.N.N.N.[Cl-].[Cl-].[Cl-].[Cl-].[Cl-].[Cl-].[O-2].[O-2].[Ru+3].[Ru+3].[Ru+4] [Ruthenium-red, reference compound]
inhibition of calcium captation by the organelle ([3]; 1 μM, isolated mitochondria 0.5 mg/ml, 20 μM Ca2+): calcium captation does not occur
